35 substances from patent publication US20250171776A1, “NON-CANONICAL CELL-PENETRATING PEPTIDES FOR ANTISENSE OLIGOMER DELIVERY” (priority 2023, published 2025) can be followed below.

Where no end group is shown, it is not given here. [ ]: non-standard residue; d: D form. Cit = NC(=O)NCCC[C@H](N)C(=O)O; Api = NC1(C(=O)O)CCNCC1; Dab = NCC[C@H](N)C(=O)O; Iph = iodophenylalanine

The test system of the first series is HELA-654 cells. The experiment in a line: Hela-654 eGFP assay (incucyte imaging, GFP positive cells, 72 h). The conditions noted are these: 72 h, read-out: EC50 (at 72 h). The format is cell-based. The procedure: HELA-654 cells were imaged at 72 hours with an incucyte and the number of GFP positive cells versus total cell counts were calculated with the incucyte image analysis software. Statistical analysis was conducted using a one-way analysis of variance (ANOVA) test with Dunnett's multiple comparison test. Bars represent mean±standard deviation (SD), with P<0.05 was considered to indicate statistical significance, (**** p<0.0001, *** […], ** p<0.01, * p<0.05).
HELA-654 cells were imaged at 72 hours with an incucyte and the number of GFP positive cells versus total cell counts were calculated with the incucyte image analysis software.
With “Dab-Pro-Arg-Dab-Leu-His-Ser-Dab-Ala-Thr-Lys-Trp-Lys-Lys ([Dab]PR[Dab]LHS[Dab]ATKWKK; also: PMO conjugate) [PMO-CXP5]”, the concentration giving a half-maximal response (EC50) (commonly the concentration needed to bring the measured effect to its halfway point) came to 10 µM. “GCTATTACCTTAACCCAG (all phosphorodiamidate morpholino (PMO)) [reference compound]”: the EC50 is 22.7 µM.

The same series, now with this note: CXP1 Dab analogs, 72 h, read-out: EC50 (at 72 h).
As for “Dab-Gln-Dab-Thr-Ser-Iph-Gly-Arg-Gly-Dab-Dab-Trp-Dab-Dab-Lys-Trp-Lys-Lys ([Dab]Q[Dab]TS[Iph]GRG[Dab][Dab]W[Dab][Dab]KWKK; also: PMO conjugate) [PMO-CXP1AE]”, the EC50 came out at 6.38 µM.

Turning to “Dab-Gln-Dab-Thr-Ser-Iph-Gly-Arg-Gly-Pip-Dab-Trp-Dab-Dab-Lys-Trp-Lys-Lys ([Dab]Q[Dab]TS[Iph]GRG[Api][Dab]W[Dab][Dab]KWKK; also: PMO conjugate) [PMO-CXP1AC]”, the EC50 is 4.75 µM. Same read-out and setting: as for “Dab-Gln-Dab-Thr-Ser-Iph-Gly-Dab-Gly-Dab-Dab-Trp-Dab-Dab-Lys-Trp-Lys-Lys [PMO-CXP1AF]”, the figure is 5.73 µM.

With “Dab-Gln-Dab-Thr-Ser-Iph-Gly-Dab-Gly-Pip-Dab-Trp-Dab-Dab-Lys-Trp-Lys-Lys [PMO-CXP1AD]”, the EC50 turned out to be 5.64 µM.

Staying with this series, now noted: CXP1 analogs (unnatural amino acids replaced), 72 h, read-out: EC50 (72 h).
With “Lys-Gln-Lys-Thr-Ser-Iph-Gly-Arg-Gly-Lys-Lys-Trp-Lys-Lys (KQKTS[Iph]GRGKKWKK; also: PMO conjugate) [PMO-CXP1Y]”, the EC50 was 14.4 µM. On the same count and under the same terms, in the case of “Lys-Gln-Lys-Thr-Ser-Iph-Gly-Lys-Gly-Pip-Lys-Trp-Lys-Lys (KQKTS[Iph]GKG[Api]KWKK; not fully specified (C-terminus); printed as Lys-Gln-Lys-Thr-Ser-Iph-Gly-Lys-Gly-Pip-Lys-Trp-Lys-Lys; also: PMO conjugate) [PMO-CXP1AA]” it was 13.1 µM; in that of “Lys-Gln-Lys-Thr-Ser-Phe-Gly-Arg-Gly-Lys-Lys-Trp-Lys-Lys (KQKTSFGRGKKWKK; also: PMO conjugate) [PMO-CXP1Z]”, 21.1 µM.

The same series, now with this note: Iph scan, 30 μM of compound, 72 hours.
Regarding “Iph-Gln-Lys-Thr-Ser-Iph-Gly-Arg-Gly-Pip-Lys-Trp-Lys-Lys ([Iph]QKTS[Iph]GRG[Api]KWKK; also: PMO conjugate) [PMO-CXP1Q]”, the “Percentage of GFP Positive Cells at 72 hours (30 μM)” value (“Percentage … (30 μM)” below) turned out to be 85%. Regarding “Lys-Gln-Iph-Thr-Ser-Iph-Gly-Arg-Gly-Pip-Lys-Trp-Lys-Lys (KQ[Iph]TS[Iph]GRG[Api]KWKK; also: PMO conjugate) [PMO-CXP1R]”, the “Percentage … (30 μM)” value amounted to 87.6%. As for “Lys-Gln-Lys-Thr-Ser-Iph-Gly-Arg-Gly-Iph-Lys-Trp-Lys-Lys (KQKTS[Iph]GRG[Iph]KWKK; also: PMO conjugate) [PMO-CXP1T]”, the “Percentage … (30 μM)” value was 36.5%. The same measure, in the same setting: as for “Lys-Gln-Lys-Thr-Ser-Iph-Gly-Arg-Gly-Pip-Iph-Trp-Lys-Lys (KQKTS[Iph]GRG[Api][Iph]WKK; also: PMO conjugate) [PMO-CXP1U]”, the figure is 66.4%; as for “Lys-Gln-Lys-Thr-Ser-Iph-Gly-Arg-Gly-Pip-Lys-Trp-Iph-Lys [PMO-CXP1V]”, 86.4%. On the same count and under the same terms, in the case of “Lys-Gln-Lys-Thr-Ser-Iph-Gly-Arg-Gly-Pip-Lys-Trp-Lys-Iph-Lys-Trp-Lys-Lys (KQKTS[Iph]GRG[Api]KWK[Iph]KWKK; not fully specified (C-terminus); printed as Lys-Gln-Lys-Thr-Ser-Iph-Gly-Arg-Gly-Pip-Lys-Trp-Lys-Iph-Lys-Trp-Lys-Lys; also: PMO conjugate) [PMO-CXP1W]” it was 94.11%; in that of “Lys-Gln-Lys-Thr-Ser-Iph-Gly-Iph-Gly-Pip-Lys-Trp-Lys-Lys (KQKTS[Iph]G[Iph]G[Api]KWKK; not fully specified (C-terminus); printed as Lys-Gln-Lys-Thr-Ser-Iph-Gly-Iph-Gly-Pip-Lys-Trp-Lys-Lys; also: PMO conjugate) [PMO-CXP1S]”, 82.3%.

The same series, now with this note: alanine scan, 20 μM of PPMO, 72 hours.
As for “Ala-Gln-Lys-Thr-Ser-Iph-Gly-Arg-Gly-Pip-Lys-Trp-Lys-Lys (AQKTS[Iph]GRG[Api]KWKK; also: PMO conjugate) [PMO-CXP1B]”, the “Percentage of GFP Positive Cells at 72 hours (20 μM)” value (“Percentage … (20 μM)” below) came to 50.5%. For the substance “Lys-Ala-Lys-Thr-Ser-Iph-Gly-Arg-Gly-Pip-Lys-Trp-Lys-Lys (KAKTS[Iph]GRG[Api]KWKK; also: PMO conjugate) [PMO-CXP1C]”, the “Percentage … (20 μM)” value is listed as 50.0%. “Lys-Gln-Ala-Thr-Ser-Iph-Gly-Arg-Gly-Pip-Lys-Trp-Lys-Lys (KQATS[Iph]GRG[Api]KWKK; also: PMO conjugate) [PMO-CXP1D]”: the “Percentage … (20 μM)” value is recorded as 48.2%. As to “Lys-Gln-Lys-Ala-Ser-Iph-Gly-Arg-Gly-Pip-Lys-Trp-Lys-Lys (KQKAS[Iph]GRG[Api]KWKK; also: PMO conjugate) [PMO-CXP1E]”, the “Percentage … (20 μM)” value is listed as 70.5%. “Lys-Gln-Lys-Thr-Ala-Iph-Gly-Arg-Gly-Pip-Lys-Trp-Lys-Lys (KQKTA[Iph]GRG[Api]KWKK; also: PMO conjugate) [PMO-CXP1F]”: the “Percentage … (20 μM)” value is 65.5%.

Turning to “Lys-Gln-Lys-Thr-Ser-Ala-Gly-Arg-Gly-Pip-Lys-Trp-Lys-Lys (KQKTSAGRG[Api]KWKK; also: PMO conjugate) [PMO-CXP1G]”, the “Percentage … (20 μM)” value is reported as 55.8%.

“Lys-Gln-Lys-Thr-Ser-Iph-Ala-Arg-Ala-Pip-Lys-Trp-Lys-Lys (KQKTS[Iph]ARA[Api]KWKK; also: PMO conjugate) [PMO-CXP1P]”: the “Percentage … (20 μM)” value came out at 41.6%. Turning to “Lys-Gln-Lys-Thr-Ser-Iph-Ala-Arg-Gly-Pip-Lys-Trp-Lys-Lys (KQKTS[Iph]ARG[Api]KWKK; also: PMO conjugate) [PMO-CXP1H]”, the “Percentage … (20 μM)” value stood at 65.5%. On the same count and under the same terms, as for “Lys-Gln-Lys-Thr-Ser-Iph-Gly-Ala-Gly-Pip-Lys-Trp-Lys-Lys (KQKTS[Iph]GAG[Api]KWKK; also: PMO conjugate) [PMO-CXP1I]”, the figure is 42.0%. The same measure, in the same setting: in the case of “Lys-Gln-Lys-Thr-Ser-Iph-Gly-Arg-Ala-Pip-Lys-Trp-Lys-Lys (KQKTS[Iph]GRA[Api]KWKK; also: PMO conjugate) [PMO-CXP1J]” it was 53.2%; in that of “Lys-Gln-Lys-Thr-Ser-Iph-Gly-Arg-Gly-Ala-Lys-Trp-Lys-Lys (KQKTS[Iph]GRGAKWKK; also: PMO conjugate) [PMO-CXP1K]”, 39.3%; in that of “Lys-Gln-Lys-Thr-Ser-Iph-Gly-Arg-Gly-Pip-Ala-Trp-Lys-Lys (KQKTS[Iph]GRG[Api]AWKK; also: PMO conjugate) [PMO-CXP1L]”, 41.8%. On to “Lys-Gln-Lys-Thr-Ser-Iph-Gly-Arg-Gly-Pip-Lys-Ala-Lys-Lys (KQKTS[Iph]GRG[Api]KAKK; also: PMO conjugate) [PMO-CXP1M]”, for which the “Percentage … (20 μM)” value was 51.0%.

With “Lys-Gln-Lys-Thr-Ser-Iph-Gly-Arg-Gly-Pip-Lys-Trp-Ala-Lys (KQKTS[Iph]GRG[Api]KWAK; not fully specified (C-terminus); printed as Lys-Gln-Lys-Thr-Ser-Iph-Gly-Arg-Gly-Pip-Lys-Trp-Ala-Lys; also: PMO conjugate) [PMO-CXP1N]”, the “Percentage … (20 μM)” value stood at 45.4%. On the same count and under the same terms, as for “Lys-Gln-Lys-Thr-Ser-Iph-Gly-Arg-Gly-Pip-Lys-Trp-Lys-Ala-Lys-Trp-Lys-Lys (KQKTS[Iph]GRG[Api]KWKAKWKK; not fully specified (C-terminus); printed as Lys-Gln-Lys-Thr-Ser-Iph-Gly-Arg-Gly-Pip-Lys-Trp-Lys-Ala-Lys-Trp-Lys-Lys; also: PMO conjugate) [PMO-CXP1O]”, the figure is 39.2%.

Still in this series, the particulars now being: chimeric peptide PMO conjugates, 72 h, read-out: EC50 (at 72 h).
Turning to “Cit-Met-Phe-Gly-Pip-Dab-Dab-Lys-Ala-Pro-Lys-Trp-Lys-Lys-Gly-Lys-Gln-Lys-Thr-Ser-Iph-Gly-Arg-Gly-Pip-Lys-Trp-Lys-Lys ([Cit]MFG[Api][Dab][Dab]KAPKWKKGKQKTS[Iph]GRG[Api]KWKK; also: PMO conjugate) [PMO-CXP4-CXP1]”, the EC50 came to 59.2 µM. The same measure, in the same setting: in the case of “Dab-Val-Ala-Arg-Asn-Asn-Dab-Thr-Lys-Gly-Lys-Trp-Lys-Lys-Gly-Lys-Gln-Lys-Thr-Ser-Iph-Gly-Arg-Gly-Pip-Lys-Trp-Lys-Lys [PMO-CXP3-CXP1]” it was 0.026 µM; in that of “Lys-Gln-Lys-Thr-Ser-Iph-Gly-Arg-Gly-Pip-Lys-Trp-Lys-Lys-Gly-Lys-Gln-Lys-Thr-Ser-Iph-Gly-Arg-Gly-Pip-Lys-Trp-Lys-Lys (KQKTS[Iph]GRG[Api]KWKKGKQKTS[Iph]GRG[Api]KWKK; not fully specified (C-terminus); printed as Lys-Gln-Lys-Thr-Ser-Iph-Gly-Arg-Gly-Pip-Lys-Trp-Lys-Lys-Gly-Lys-Gln-Lys-Thr-Ser-Iph-Gly-Arg-Gly-Pip-Lys-Trp-Lys-Lys; also: PMO IVS2-654 conjugate) [PMO-CXP1-CXP1]”, 1.07 µM. For the substance “Lys-Gln-Lys-Thr-Ser-Lys-Gln-Lys-Thr-Ser-Iph-Gly-Arg-Gly-Pip-Lys-Trp-Lys-Lys (KQKTSKQKTS[Iph]GRG[Api]KWKK; not fully specified (C-terminus); printed as Lys-Gln-Lys-Thr-Ser-Lys-Gln-Lys-Thr-Ser-Iph-Gly-Arg-Gly-Pip-Lys-Trp-Lys-Lys; also: PMO conjugate) [SC-CXP1]”, the EC50 stood at 4.01 µM.
